Source: US10883962B2, “Electrical double layer in nanopores for detection and identification of molecules and submolecular units” (University of Kentucky Research Foundation, priority 2017, dated 2021)

Tests used:
[1] = Density and estimated spherical radius of analytes and supporting ions; assay type: physicochemical
[2] = Expected valence charge of analytes and ions based on pKas; assay type: physicochemical; conditions: for Expected valence charge: maximal negative charge, intraluminal pH of 12; for Valence charge level (Zanalyte): used in the empirical model, Example 2
Description: In order to investigate any dependency of the signal on the analyte concentration, the concentrations of the molecular analytes were varied from 10^−8 to 10^−2 M in 10^−5 M NaF solution. Because NaF dissociates into Na^+ and F^−, and F^− will form HF in solution (due to HF being a weak acid), it was important to ensure that the concentration of HF was negligible compared with the concentration of the molecular analytes and supporting electrolytes. […] The specific analytes used in this study were chosen to have distinct acid dissociation constants (pKas) and to be relatively similar in size (Table 2). […] NaCl was chosen as the supporting electrolyte in this pH experiment in order to maintain a homogeneous ion population with the titration reagents, NaOH and HCl. It was desirable to avoid using HF as a titration reagent, due to the risk of damaging the nanopore device and because HF is a weak acid. In low pH conditions, the concentration of undissociated HF would increase to non-negligible levels. Since HCl and NaOH are a strong acid and base, respectively, there was no risk of producing undissociated molecules at low or high pHs. […] In order to characterize this energetic balance, we estimate the pH of the intraluminal environment by considering the variable valence charges and pKas of the analytes. Table 3 lists the expected charge on each analyte at different pHs based on the pKas of the individual analytes.

[3] = cited from earlier work
[4] = 21° C.; cited from earlier work
[5] = Saturation of NaF solution; assay type: physicochemical; conditions: in this study
Description: The SNR is consistent for electrolyte concentrations <1 M, and the sudden decrease in SNR at 1 M NaF is indicative of a saturation effect, where saturation of the solution would preclude significant changes to the electrochemical potential of the EDL. By considering the charge density and steady state double layer potential as response curves, we can explain the loss of signal quality at high concentrations of supporting electrolyte (FIG. 3(c)). The increase in steady-state potential and charge density (calculated from the model) slows at high concentrations, and a similar effect occurs experimentally to the steady state double layer potential. The decrease in slope of the response curves at high concentration will result in smaller signals from the analytes, resulting in the decrease in SNR observed at high concentrations of supporting electrolyte. Since the measured steady state potential and solution saturation follow similar curves, this may be a useful method for quantitatively characterizing solutions, as well as a method of characterizing individual analyte molecules.

Compound	Estimated spherical radius [1]	Expected valence charge [2]	Valence charge at pH ([2]; pH 1)	Valence charge at pH ([2]; pH 2, 3)	Valence charge at pH ([2]; pH 4)	Valence charge at pH ([2]; pH 5, 6)	Valence charge at pH ([2]; pH 7, 8, 9, 10)	Valence charge at pH ([2]; pH 11)	Valence charge at pH ([2]; pH 12)	Valence charge level (Zanalyte) [2]	pKa 1 [3]	pKa 2 [3]	Saturation of NaF [4]	Saturated NaF solution reached [5]
O=C(O)CC(O)(CC(=O)O)C(=O)O [Citric Acid]	0.37 nm	−3	0	0	−1	−2	−3	−3	−3	−3				
Cl [Cl−]	0.21 nm													
F [F−]	0.17 nm	−1												
Oc1ccc(O)cc1 [Hydroquinone]	0.32 nm	−1	0	0	0	0	0	−1	−1	−1	10.35			
[K+] [K^+]	0.26 nm	1												
O=C1O[C@H]([C@@H](O)CO)C(O)=C1O [L-Ascorbic acid]	0.35 nm	−2	0	0	0	−1	−1	−1	−2	−2		11.7		
[F-].[Na+] [NaF]													0.96 M	approximately 1 M
[Na+] [Na^+]	0.21 nm	1												
O=C(O)C(=O)O [Oxalic acid]	0.27 nm	−1	0	−1	−1	−1	−1	−1	−1	−1				
